Data published in patent US7473790B2 (Pfizer Inc., priority 2003, dated 2009).
pIC50: −log10 of the molar value.

These compounds were tested against T1, HCV polymerase (Hepatitis C virus genotype 1b, UniProt P26663) (assay: HCV polymerase primer/template-directed transcription assay (32P-GTP incorporation, filter binding)). Settings: @ 20 uM compound; given where IC50 was impractical to calculate; read-out: percent inhibition.
T1 construct: 2.5 pmoles (0.15 μg) HCV polymerase protein in a final volume of 75 μL
T1 sequence (P26663 2420-3010): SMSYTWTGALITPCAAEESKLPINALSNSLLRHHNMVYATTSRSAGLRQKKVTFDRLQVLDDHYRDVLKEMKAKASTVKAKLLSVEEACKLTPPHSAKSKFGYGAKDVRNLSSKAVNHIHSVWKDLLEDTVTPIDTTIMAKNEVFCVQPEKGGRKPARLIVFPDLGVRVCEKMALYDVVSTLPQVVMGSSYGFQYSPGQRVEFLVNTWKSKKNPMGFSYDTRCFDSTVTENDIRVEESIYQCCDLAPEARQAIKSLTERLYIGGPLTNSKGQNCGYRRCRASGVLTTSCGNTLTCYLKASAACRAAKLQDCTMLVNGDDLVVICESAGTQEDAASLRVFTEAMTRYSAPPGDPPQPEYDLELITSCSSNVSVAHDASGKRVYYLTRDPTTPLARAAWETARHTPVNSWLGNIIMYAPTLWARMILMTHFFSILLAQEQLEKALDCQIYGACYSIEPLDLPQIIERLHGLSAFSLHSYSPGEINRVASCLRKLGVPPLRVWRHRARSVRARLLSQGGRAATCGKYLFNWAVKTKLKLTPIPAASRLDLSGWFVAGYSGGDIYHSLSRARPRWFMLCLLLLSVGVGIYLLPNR
Assay type: biochemical
Description: The compounds described herein were tested for activity with HCV polymerase. Recombinant HCV polymerase was tested for its ability to perform primer/template-directed transcription in assays that contained 30 mM tris-HCl pH 7.2, 10 mM MgCl2, 20 mM NaCl, 1 mM Dithiothreitol (DTT), 0.05% Tween-20, 1% glycerol, 5 pmoles biotin-dG12 (primer), 0.5 pmoles poly(rC)300 (template), 1 μM GTP, 0.1-0.3 uCi α-^32P-GTP, and 2.5 pmoles (0.15 μg) HCV polymerase protein in a final volume of 75 μL. Reactions were initiated by addition of enzyme and incubated 30 minutes at 30° C. Reactions were stopped by addition of 33 mM EDTA, and polynucleotide products were collected by filtration through Diethylaminoethyl (DE) Filtermat papers (Wallac). Unincorporated triphosphate was removed by washing the filters with 5% dibasic sodium phosphate. The filters were counted in a Packard Tri-Lux Microbeta scintillation counter (Packard Bioscience, Meriden, Conn.). Compounds to be tested were added at various concentrations, e.g., 1 μm to 50 μm, from stocks in 10% DMSO-water (final DMSO is 1% in reaction).
IC50 values were estimated from the primary cpm data (collected in triplicate) using the formula: cpm (I)=cpm(no inhibitor)(1−([I]/([I]+IC50))). An IC50 value represents the concentration (in μM) of a compound that provides 50% inhibition of polymerase-directed transcription in the above assay. A percent inhibition value is expressed for a compound where it was impractical to calculate an IC50 value with available data. If the IC50 estimated by the above equation was less than 200 nM, it was recalculated using the following equation, which takes into account the enzyme concentration (30 nM) in the assay: cpm(I)=cpm(no inhibitor)(1−((((I+IC50+30e−9)−sqrt(((I+IC50+30e−9)^2)−4×30e−9×I)))/((2)(30e−9))). Curve fitting was performed using the program KaleidaGraph (Synergy Software, Reading, Pa.).
Compound CCC1(CCc2ccc(OC)cc2)CC(O)=C(Sc2nc3nc(C)cc(C)n3n2)C(=O)O1 (stereo not drawn) [C(16), 3-(5,7-Dimethyl-[1,2,4]triazolo[1,5-a]pyrimidin-2-ylsulfanyl)-6-ethyl-4-hydroxy-6-[2-(4-methoxy-phenyl)-ethyl]-5,6-dihydro-pyran-2-one] has an inhibition at 20 µM of 8%.

Same assay, conditions: @ 50 uM compound; given where IC50 was impractical to calculate; read-out: percent inhibition
With CC(=O)n1nc(C)c(CCC2(C3CCCC3)CC(=O)CC(=O)O2)c1C (stereo not drawn) [A(19), 6-[2-(1-Acetyl-3,5-dimethyl-1H-pyrazol-4-yl)-ethyl]-6-cyclopentyl-dihydro-pyran-2,4-dione] the inhibition at 50 µM was 37%.

Same assay, conditions: IC50, recombinant HCV polymerase; 30 minutes at 30° C.; concentration giving 50% inhibition of polymerase-directed transcription
For CC(C)(C#N)c1ccc(CCC2(C3CCCC3)CC(=O)CC(=O)O2)cc1F (stereo not drawn) [A(81), 2-{4-[2-(2-Cyclopentyl-4,6-dioxo-tetrahydro-pyran-2-yl)-ethyl]-2-fluoro-phenyl}-2-methyl-propionitrile], the pIC50 was 6.85.

Same assay, conditions: recombinant HCV polymerase; 30 minutes at 30° C.; concentration giving 50% inhibition of polymerase-directed transcription; read-out: IC50
In the case of COc1ccc(CCC2(C3CCCC3)CC(O)=C(Cc3cc(=O)[nH]c(-c4ccccn4)n3)C(=O)O2)cc1 (stereo not drawn) [B(66), 6-({6-Cyclopentyl-4-hydroxy-6-[2-(4-methoxyphenyl)ethyl]-2-oxo-5,6-dihydro-2H-pyran-3-yl}methyl)-2-pyridin-2-ylpyrimidin-4(3H)-one], the pIC50 was 6.66. CCc1cc(CCC2(C3CCCC3)CC(O)=C(Cc3nc4nc(C)cc(C)n4n3)C(=O)O2)ccc1OCCOC (stereo not drawn) [A(183), 6-Cyclopentyl-3-(5,7-dimethyl-[1,2,4]triazolo[1,5-a]pyrimidin-2-ylmethyl)-6-{2-[3-ethyl-4-(2-methoxy-ethoxy)-phenyl]-ethyl}-4-hydroxy-5,6-dihydro-pyran-2-one] showed a pIC50 of 8.15. In the case of CC(C)(O)c1ccc(CCC2(C3CCCC3)CC(=O)CC(=O)O2)cc1F (stereo not drawn) [A(215), 6-cyclopentyl-6-{2-[3-fluoro-4-(1-hydroxy-1-methylethyl)phenyl]ethyl}dihydro-2H-pyran-2,4(3H)-dione], the pIC50 was 5.31. Work on COc1cc(C(C)(C)C#N)c(F)cc1CCC1(C2CCCC2)CC(O)=C(Cc2nc3ncc(C)cn3n2)C(=O)O1 (stereo not drawn) [A(261), 2-(4-{2-[2-Cyclopentyl-4-hydroxy-5-(6-methyl-[1,2,4]triazolo[1,5-a]pyrimidin-2-ylmethyl)-6-oxo-3,6-dihydro-2H-pyran-2-yl]-ethyl}-2-fluoro-5-methoxy-phenyl)-2-methyl-propionitrile] yielded a pIC50 of 8.40. In the case of CCc1cc(CCC2(C3CCCC3)CC(=O)CC(=O)O2)ccc1OC (stereo not drawn) [A(96), 6-Cyclopentyl-6-[2-(3-ethyl-4-methoxy-phenyl)-ethyl]-dihydro-pyran-2,4-dione], the pIC50 was 5.49. Work on CCc1cc(CCC2(C3CCCC3)CC(=O)CC(=O)O2)ccc1O (stereo not drawn) [A(22), 6-Cyclopentyl-6-[2-(3-ethyl-4-hydroxy-phenyl)-ethyl]-dihydro-pyran-2,4-dione] yielded a pIC50 of 6.52. With Cc1nc(-c2ccc(CCC3(C4CCCC4)CC(=O)CC(=O)O3)cc2F)no1 (stereo not drawn) [A(15), 6-Cyclopentyl-6-{2-[3-fluoro-4-(5-methyl-[1,2,4]oxadiazol-3-yl)-phenyl]-ethyl}-dihydro-pyran-2,4-dione] the pIC50 was 5.36. With COc1cc(OC)c(CCC2(C3CCCC3)CC(O)=C(Cc3nc4ccccc4c(=O)[nH]3)C(=O)O2)cc1Cl (stereo not drawn) [B(65), 2-({6-[2-(5-Chloro-2,4-dimethoxyphenyl)ethyl]-6-cyclopentyl-4-hydroxy-2-oxo-5,6-dihydro-2H-pyran-3-yl}methyl)quinazolin-4(3H)-one] the pIC50 was 6.96. Cc1cc(C)n2nc(CC3=C(O)CC(CCc4ccc(C(C)C)c(Cl)c4)(C4CCCC4)OC3=O)nc2n1 (stereo not drawn) [B(44), 6-[2-(3-chloro-4-isopropylphenyl)ethyl]-6-cyclopentyl-3-[(5,7-dimethyl[1,2,4]triazolo[1,5-a]pyrimidin-2-yl)methyl]-4-hydroxy-5,6-dihydro-2H-pyran-2-one] showed a pIC50 of 7.28. O=C1CC(=O)OC(CCc2ccc(C3(C4CC4)CC(=O)CC(=O)O3)cc2)(C2CCCC2)C1 (stereo not drawn) [A(31)] was tested, and the pIC50 was 6.40. With C[C@H](O)c1ccc(CCC2(C3CCCC3)CC(=O)CC(=O)O2)cc1 (stereo partly drawn) [A(36), 6-Cyclopentyl-6-{2-[4-(1-hydroxy-ethyl)-phenyl]-ethyl}-dihydro-pyran-2,4-dione] the pIC50 was 5.08. Work on Cc1nc(C(C)(C)c2ccc(CCC3(C4CCCC4)CC(=O)CC(=O)O3)cc2)no1 (stereo not drawn) [A(56), 6-Cyclopentyl-6-(2-{4-[1-methyl-1-(5-methyl-[1,2,4]oxadiazol-3-yl)-ethyl]-phenyl}-ethyl)-dihydro-pyran-2,4-dione] yielded a pIC50 of 4.41. COc1cc(OC)c(CCC2(C3CCCC3)CC(O)=C(Sc3nnc(-c4ccc(O)cc4)[nH]3)C(=O)O2)cc1Cl (stereo not drawn) [C(81), 6-[2-(5-chlor-2,4-dimethoxyphenyl)ethyl]-6-cyclopentyl-4-hydroxy-3-{[5-(4-hydroxyphenyl)-4H-1,2,4-triazol-3-yl]thio}-5,6-dihydro-2H-pyran-2-one] was tested, and the pIC50 was 7.85. For CCc1nc(CC2=C(O)CC(CCc3cc(CC)c(O)cc3OC)(C3CCCC3)OC2=O)c(C)[nH]1 (stereo not drawn) [A(157), 6-Cyclopentyl-6-[2-(5-ethyl-4-hydroxy-2-methoxy-phenyl)-ethyl]-3-(2-ethyl-5-methyl-1H-imidazol-4-ylmethyl)-4-hydroxy-5,6-dihydro-pyran-2-one], the pIC50 was 7.19. Work on Cc1cnc2nc(CC3=C(O)CC(COc4ccc(C(C)(C)C#N)c(F)c4)(C4CCCC4)OC3=O)nn2c1 (stereo not drawn) [C(111), 2-{4-[2-Cyclopentyl-4-hydroxy-5-(6-methyl-[1,2,4]triazolo[1,5-a]pyrimidin-2-ylmethyl)-6-oxo-3,6-dihydro-2H-pyran-2-ylmethoxy]-2-fluoro-phenyl}-2-methyl-propionitrile] yielded a pIC50 of 6.40. COc1cc(OC)c(CCC2(C3CCCC3)CC(O)=C(Cc3cn4cccnc4n3)C(=O)O2)cc1Cl (stereo not drawn) [B(90), 6-[2-(5-chloro-2,4-dimethoxyphenyl)ethyl]-6-cyclopentyl-4-hydroxy-3-(imidazo[1,2-a]pyrimidin-2-ylmethyl)-5,6-dihydro-2H-pyran-2-one] was tested, and the pIC50 was 8.22. With CCc1ccc(O)c(CCC2(C3CCCC3)CC(O)=C(Cc3nc4nc(C)cc(C)n4n3)C(=O)O2)c1 (single isomer, unassigned; enantiomer 1) [A(167), Enantiomer 1 of 6-Cyclopentyl-3-(5,7-dimethyl-[1,2,4]triazolo[1,5-a]pyrimidin-2-ylmethyl)-6-[2-(5-ethyl-2-hydroxy-phenyl)-ethyl]-4-hydroxy-5,6-dihydro-pyran-2-one] the pIC50 was 8.40. Work on Cc1cnc2nc(CC3=C(O)CC(CCc4ccc(C5(C#N)CCCC5)c(F)c4)(C4CCCC4)OC3=O)nn2c1 (stereo not drawn) [A(190), 1-(4-{2-[2-Cyclopentyl-4-hydroxy-5-(6-methyl-[1,2,4]triazolo[1,5-a]pyrimidin-2-ylmethyl)-6-oxo-3,6-dihydro-2H-pyran-2-yl]-ethyl}-2-fluoro-phenyl)-cyclopentanecarbonitrile] yielded a pIC50 of 7.96. Compound CC(C)Oc1ccc(CCC2(C3CCCC3)CC(=O)CC(=O)O2)cc1F (single isomer, unassigned) [J(2), 6-cyclopentyl-6-[2-(3-fluoro-4-isopropoxyphenyl)ethyl]dihydro-2H-pyran-2,4(3H)-dione] has a pIC50 of 5.41. Compound COc1ccc(CCC2(C3CCCC3)CC(O)=C(Sc3nnc(-c4ccccc4)[nH]3)C(=O)O2)cc1Cl (stereo not drawn) [C(22), 6-[2-(3-Chloro-4-methoxy-phenyl)-ethyl]-6-cyclopentyl-3-(5-phenyl-4H-[1,2,4]triazol-3-ylsulfanyl)-dihydro-pyran-2,4-dione] has a pIC50 of 7.17. CCc1cc(CCC2(C3CCCC3)CC(O)=C(Cc3nc4ncc(C)cn4n3)C(=O)O2)cc(CC)c1O (stereo not drawn) [A(233), 6-cyclopentyl-6-[2-(3,5-diethyl-4-hydroxyphenyl)ethyl]-4-hydroxy-3-[(6-methyl[1,2,4]triazolo[1,5-a]pyrimidin-2-yl)methyl]-5,6-dihydro-2H-pyran-2-one] was tested, and the pIC50 was 7.96. Compound CCc1cc(CCC2(C3CCCC3)CC(O)=C(Cc3nc4ncccn4n3)C(=O)O2)c(OC)cc1O (single isomer, unassigned) [A(209), 6-cyclopentyl-6-[2-(5-ethyl-4-hydroxy-2-methoxyphenyl)ethyl]-4-hydroxy-3-([1,2,4]triazolo[1,5-a]pyrimidin-2-ylmethyl)-5,6-dihydro-2H-pyran-2-one] has a pIC50 of 7.30. COc1ccc(CCC2(C3CCCC3)CC(O)=C(Sc3nnc(-c4cccnc4)n3C)C(=O)O2)cc1Cl (stereo not drawn) [C(96)] showed a pIC50 of 7.12. In the case of CCc1cc(CCC2(C3CCCC3)CC(O)=C(Cc3nc4nc(C)cc(C)n4n3)C(=O)O2)c2c(c1O)CCO2 (stereo not drawn) [A(180), 6-Cyclopentyl-3-(5,7-dimethyl-[1,2,4]triazolo[1,5-a]pyrimidin-2-ylmethyl)-6-[2-(5-ethyl-4-hydroxy-2,3-dihydro-benzofuran-7-yl)-ethyl]-4-hydroxy-5,6-dihydro-pyran-2-one], the pIC50 was 8.00.
